According to ChEMBL document CHEMBL4406868, “Structure-based design and SAR development of novel selective polo-like kinase 1 inhibitors having the tetrahydropteridin scaffold” (Eur J Med Chem, 2019):
Values after ≈ are worked out from the molar mass of the structure shown.

Assays:
[1] = Solubility of compound in PBS buffer at pH 7.4 incubated for 12 hrs by UV-visible spectrophotometry; type: physicochemical
[2] = tested on: A549; assay: cells; details: Homo sapiens, A549, 72 h
[3] = tested on: Huh-7; assay: cells; details: Homo sapiens, Huh-7, 72 h
[4] = tested on: K562; assay: cells; details: Homo sapiens, K562, 72 h
[5] = tested on: MCF7; assay: cells; details: Homo sapiens, MCF7, 72 h
[6] = tested on: NCI-H1975; assay: cells; details: Homo sapiens, NCI-H1975, 72 h
[7] = tested on: HeLa; assay: cells; details: Homo sapiens, 72 h
[8] = molecular target: Serine/threonine-protein kinase PLK2 (Homo sapiens, UniProt Q9NYY3); assay: Inhibition of recombinant full length human GST-tagged PLK2 expressed in baculovirus expression system using ser/thr 16 as substrate incubated for 1 hr by Z'-LYTE assay
Chain of Serine/threonine-protein kinase PLK2 (Q9NYY3 whole entry): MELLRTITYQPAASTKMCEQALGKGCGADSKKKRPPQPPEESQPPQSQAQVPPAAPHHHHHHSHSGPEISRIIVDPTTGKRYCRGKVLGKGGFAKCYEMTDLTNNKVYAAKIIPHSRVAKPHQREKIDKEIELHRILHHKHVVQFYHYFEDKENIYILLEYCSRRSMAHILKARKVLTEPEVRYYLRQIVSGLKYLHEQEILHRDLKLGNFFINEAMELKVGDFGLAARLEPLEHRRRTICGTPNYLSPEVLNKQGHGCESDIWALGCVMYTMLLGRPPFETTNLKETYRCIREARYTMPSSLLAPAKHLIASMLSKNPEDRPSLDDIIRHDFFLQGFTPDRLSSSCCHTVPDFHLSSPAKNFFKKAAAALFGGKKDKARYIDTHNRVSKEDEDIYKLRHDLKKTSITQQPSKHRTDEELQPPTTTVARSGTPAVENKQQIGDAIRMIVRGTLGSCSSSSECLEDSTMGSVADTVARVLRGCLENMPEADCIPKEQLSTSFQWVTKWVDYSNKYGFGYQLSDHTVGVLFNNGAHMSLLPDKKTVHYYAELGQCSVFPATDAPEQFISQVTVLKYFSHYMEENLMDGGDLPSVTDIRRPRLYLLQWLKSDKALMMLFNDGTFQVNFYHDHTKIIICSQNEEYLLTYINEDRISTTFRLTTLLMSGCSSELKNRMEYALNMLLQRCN

SMILES	solubility at 12 h [1] [µg/mL]	GI50 [2] [nM]	GI50 [3] [nM]	GI50 [4] [nM]	GI50 [5] [nM]	GI50 [6] [nM]	GI50 [7] [nM]	IC50 [8] [nM]
CC[C@@H]1C(=O)N(C)c2cnc(Nc3cc(F)c(C(=O)NC4CCN(C)CC4)cc3OCCO)nc2N1C1CCCC1	530 (≈ 930 µM)	44	66.9	24.6	81.4	501	13.1	
CC[C@@H]1C(=O)N(C)c2cnc(Nc3ccc(C(N)=O)cc3OCCO)nc2N1C1CCCC1		447	129	132	252	1200	118	290
CC[C@@H]1C(=O)N(C)c2cnc(Nc3ccc(C(=O)NC4CCOCC4)cc3OCCO)nc2N1C(C)C		3440	722	773	1270	3550	1750	
CC[C@@H]1C(=O)N(C)c2cnc(Nc3cc(F)c(C(=O)NCCN4CCOCC4)cc3OCCO)nc2N1C1CCCC1		172	232	100	405	1150	36	
CC[C@@H]1C(=O)N(C)c2cnc(Nc3ccc(C(=O)NC4CCN(C)CC4)cc3OCCO)nc2N1C(C)C		> 10000	> 10000	6500	> 10000	> 10000	> 10000	
CC[C@@H]1C(=O)N(C)c2cnc(Nc3ccc(C(=O)NC4CCN(C)CC4)cc3OCCO)nc2N1C1CCCC1	1140 (≈ 2070 µM)	36	71.3	69.6	61.5	131	29.2	
CC[C@@H]1C(=O)N(C)c2cnc(Nc3ccc(C(C)=O)cc3OCCO)nc2N1C1CCCC1		87.6	56	38.1	107	220	42	132
CC[C@@H]1C(=O)N(C)c2cnc(Nc3cc(F)c(C(=O)NCCN4CCN(C)CC4)cc3OCCO)nc2N1C1CCCC1		1190	831	1070	908	2470	225	167
CC[C@@H]1C(=O)N(C)c2cnc(Nc3ccc(C(=O)NC4CCN(C(C)C)CC4)cc3OCCO)nc2N1C1CCCC1		138	216	65.8	140	171	122	
CC[C@@H]1C(=O)N(C)c2cnc(Nc3ccc(C(=O)NC4CCOCC4)cc3OCCO)nc2N1C1CCCC1		79.4	19.9	63.8	64.3	166	41.9	
CC[C@@H]1C(=O)N(C)c2cnc(Nc3cc(F)c(C(=O)NC)cc3OCCO)nc2N1C1CCCC1		171	113	120	222	510	47.1	
CC[C@@H]1C(=O)N(C)c2cnc(Nc3cc(F)c(C(=O)NCCN(C)C)cc3OCCO)nc2N1C1CCCC1		1720	807	731	1550	5130	435	
CC[C@@H]1C(=O)Nc2cnc(Nc3ccc(C(=O)NC4CCCC4)cc3OC)nc2N1C1CCCC1		729	430	810	744	1100	728	
CCNC(=O)c1ccc(Nc2ncc3c(n2)N(C2CCCC2)[C@H](CC)C(=O)N3C)c(OCCO)c1		197	81.6	98.9	331	519	82.3	
CC[C@@H]1C(=O)N(C)c2cnc(Nc3ccc(C(=O)NC4CCCC4)cc3OCCO)nc2N1C(C)C		2590	1450	1250	1820	2370	1120	
CCC1C(=O)N(C)c2cnc(Nc3cc(F)c(C(=O)NC4CCCC4)cc3OCCO)nc2N1C1CCCC1 (stereo not drawn)		352	349	265	158	567	123	
CC[C@@H]1C(=O)N(C)c2cnc(Nc3ccc(C(=O)NCCN4CCN(C)CC4)cc3OCCO)nc2N1C1CCCC1		540	876	187	871	3810	892	
CC[C@@H]1C(=O)N(C)c2cnc(Nc3cc(F)c(C(=O)NC4CCN(C)CC4)cc3OCCO)nc2N1C(C)C		852	885	540	833	2120	274	
CC[C@@H]1C(=O)N(C)c2cnc(Nc3ccc(C(=O)NC4CC4)cc3OCCO)nc2N1C1CCCC1		322	197	143	269	676	129	
CCNC(=O)c1cc(OCCO)c(Nc2ncc3c(n2)N(C2CCCC2)[C@H](CC)C(=O)N3C)cc1F		98.3	141	86.3	130	253	39.4	107
CC[C@@H]1C(=O)N(C)c2cnc(Nc3ccc(C(=O)NCCN(C)C)cc3OCCO)nc2N1C1CCCC1		283	239	58.2	312	3200	133	265
CC[C@@H]1C(=O)N(C)c2cnc(Nc3ccc(C(=O)NC4CCCC4)cc3CCO)nc2N1C1CCCC1		76.8	25.5	57.4	64.9	197	45.1	36
CC[C@@H]1C(=O)N(C)c2cnc(Nc3ccc(C(=O)NC(C)C)cc3OCCO)nc2N1C1CCCC1		79.3	65.9	47.4	162	677	24.7	
CC[C@@H]1C(=O)N(CCO)c2cnc(Nc3ccc(C(=O)NC4CCCC4)cc3OC)nc2N1C1CCCC1		5020	4470	4440	3720	3830	4820	
CC[C@@H]1C(=O)N(C)c2cnc(Nc3cc(F)c(C(=O)NC4CCOCC4)cc3OCCO)nc2N1C(C)C		1170	1110	915	931	1920	351	869
CC[C@@H]1C(=O)N(COC)c2cnc(Nc3ccc(C(=O)NC4CCCC4)cc3OC)nc2N1C1CCCC1		8130	6760	> 10000	> 10000	> 10000	> 10000	
CC[C@@H]1C(=O)N(C)c2cnc(Nc3ccc(C(=O)NC4CCCC4)cc3OCCO)nc2N1C1CCCC1		71.2	110	91.3	98.9	158	50.7	152
CC[C@@H]1C(=O)N(C)c2cnc(Nc3ccc(C(=O)NC)cc3OCCO)nc2N1C1CCCC1		84.4	52.4	46.9	135	361	25.4	
